System: indomethacin induced gastric damage
Test: Anti-ulcer activity: inhibition of indomethacin induced gastric damage in the rat
Type: in vivo
Conditions: 100 mg/kg orally, 30 minutes prior to indomethacin 15 mg/kg s.c.; score scale 1-9 after 4 hours; vehicle control 3.71 ± 0.80; P<0.01 (Mann Witney test)
Procedure: Anti-ulcer activity was assessed by the inhibition of indomethacin induced gastric damage in the rat according to the method of Eleghe (1974) Israeli J. Med. Sci. 10. 1451. Rats were starved overnight and given 15 mg/kg indomethacin subcutaneously and sacrificed 4 hours later. Stomachs were reflated with n. saline, cut along the greater curvature pinned out and scored for gastric damage by the following system:
Score 1-3--according to degree of erythema and slight haemorrhage.
Score 4-6--according to degree of muscosal erosion.
Score 7-9--according to depth of gastric damage.
Groups of 7 rats were used for each treatment and the test compound or vehicle were administered 30 minutes prior to giving the indomethacin. Dose of test compound was 100 mg/kg orally and control groups receiving vehicle only were obtained using the above scoring system and the Mann Witney test applied for significance of difference between the values obtained with the treatments.

For CCCCCCC(C)(O)CCN1CN(C)C(=O)C1CCCCCCC(=O)OC (stereo not shown) [Compound 6, 1-(3'-hydroxy-3'-methyl-n-nonyl)-3-methyl-5-(6"-methoxycarbonyl-n-hexyl)-4-imidazolidone], the “Test Compound Mean Score ± S.E. of Mean (gastric damage)” value was 0.71 ± 0.42.

From patent US4246273A, “1,5-Disubstituted imidazolid-4-ones” (Beecham Group Limited, priority 1978, dated 1981)
